Measured values: US20070037846A1, “Pyrazolidinedione derivatives” (ACTELION PHARMACEUTICALS, LTD., priority 2003, published 2007)

Biological target: T1, human P2Y12 receptor (Homo sapiens, UniProt Q9H244)
T1 construct: expressed in transfected cells; host or cells: CHO (Chinese Hamster Ovary) cells
Assay: P2Y12 receptor binding assay (displacement of tritium-labeled 2-methyl-S-ADP on CHO cells)
Details: CHO cells with recombinant human P2Y12 receptor, 2 hours at room temperature
Description: The ability of the compounds of formulae (I) and (III) to bind to the P2Y12 receptor may be measured by methods similar to those described in Gachet C. et al., Br. J. Hematol. 1995, 91, 434-444 and by the method described below in Example 16.
Chinese Hamster Ovary (CHO) cells with recombinant expression of the human P2Y12 receptor were cultured in 24 well cell-culture plates. Cells were washed three times with binding buffer (50 mM Tris pH 7.4, 100 mM NaCl, 1 mM EDTA, 0.5% BSA). The cells were then incubated with 0.5 ml per well binding buffer containing tritium-labeled 2-methyl-thio-adenosine 5′-diphosphate (2-methyl-S-ADP) (between 100'000 and 300'000 dpm per well) and various concentrations of test compounds. After incubation at room temperature for 2 hours, cells were washed three times with binding buffer. Then, cells were solubilized by addition of 0.5 ml solubilization buffer (SDS, NaOH, EDTA). The content of each well was then transferred into beta-counter vials and 2.0 ml of Ultima Gold Scintillation liquid was added.
The test is conducted as described hereinabove. […] Exemplary IC50 values are given below.

T1 sequence (Q9H244 whole entry): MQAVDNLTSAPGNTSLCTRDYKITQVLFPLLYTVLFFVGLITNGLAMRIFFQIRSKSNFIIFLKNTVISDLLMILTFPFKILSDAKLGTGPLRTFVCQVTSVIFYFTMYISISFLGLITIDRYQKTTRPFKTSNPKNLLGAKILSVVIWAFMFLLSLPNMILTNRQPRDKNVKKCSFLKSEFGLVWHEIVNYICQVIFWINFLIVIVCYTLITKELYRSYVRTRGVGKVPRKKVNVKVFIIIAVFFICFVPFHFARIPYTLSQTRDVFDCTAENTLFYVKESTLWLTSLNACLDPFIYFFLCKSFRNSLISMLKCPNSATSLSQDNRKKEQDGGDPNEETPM

| SMILES | IC50 [nM] |
| --- | --- |
| CCCOc1ccc(C=C2C(=O)NN(c3ccccc3)C2=O)c(C)c1C [Example 1, 4-(2,3-Dimethyl-4-propoxy-benzylidene)-1-phenyl-pyrazolidine-3,5-dione] | 24 |
| COc1ccc(C=C2C(=O)NN(c3ccccc3)C2=O)c(C)c1C [Example 2a7, 4-(2,3-Dimethyl-4-methoxy-benzylidene)-1-phenyl-pyrazolidine-3,5-dione] | 190 |
| CCOc1ccc(C=C2C(=O)NN(c3ccccc3)C2=O)cc1C [Example 2a12, 4-(4-Ethoxy-3-methyl-benzylidene)-1-phenyl-pyrazolidine-3,5-dione] | 470 |
| CCCOc1ccc(C=C2C(=O)NN(c3ccccc3)C2=O)c2c1CCCC2 [Example 2a25, 1-Phenyl-4-(4-propoxy-5,6,7,8-tetrahydro-naphthalen-1-ylmethylene)-pyrazolidine-3,5-dione] | 30 |
| CCCOc1ccc(C=C2C(=O)NN(c3ccccc3)C2=O)c2cnccc12 [Example 2a30, 1-Phenyl-4-[1-(5-propoxy-isoquinolin-8-yl)-methylidene]-pyrazolidine-3,5-dione] | 10 |
| CCCOc1ccc(C=C2C(=O)NN(c3ccccc3)C2=O)c(OCCC)n1 [Example 2a35, 4-[1-(2,6-Dipropoxy-pyridin-3-yl)-methylidene]-1-phenyl-pyrazolidine-3,5-dione] | 370 |
| CCCOc1ccc(C=C2C(=O)NN(c3ccccc3)C2=O)c(OCCOC)c1C [Example 2a39, 4-[1-[2-(2-Methoxy-ethoxy)-3-methyl-4-propoxy-phenyl]-methylidene]-1-phenyl-pyrazolidine-3,5-dione] | 15 |
| CCCOc1ccc(C=C2C(=O)NN(c3ccccc3)C2=O)c(OCCCCO)c1C [Example 2a43, 4-[1-[2-(4-Hydroxy-butoxy)-3-methyl-4-propoxy-phenyl]-methylidene]-1-phenyl-pyrazolidine-3,5-dione] | 5 |
| CCCOc1ccc(C=C2C(=O)NN(c3ccccc3)C2=O)c(OCCCCC(=O)O)c1C [Example 2a52, 4-[1-[2-(4-Carboxy-butyloxy)-3-methyl-4-propoxy-phenyl]-methylidene]-1-phenyl-pyrazolidine-3,5-dione] | 1.6 |
| CCCOc1ccc(C=C2C(=O)NN(c3ccccc3)C2=O)c(OC[C@H](O)CC(=O)O)c1C [Example 2a63, 4-[1-[2-((2R)-3-Carboxy-2-hydroxy-propoxy)-3-methyl-4-propoxy-phenyl]-methylidene]-1-phenyl-pyrazolidine-3,5-dione] | 1 |
| CCCOc1ccc(C=C2C(=O)NN(c3ccccc3)C2=O)c(OC[C@@H](O)CC(=O)O)c1C [Example 2a64, 4-[1-[2-((2S)-3-Carboxy-2-hydroxy-propoxy)-3-methyl-4-propoxy-phenyl]-methylidene]-1-phenyl-pyrazolidine-3,5-dione] | 0.8 |
| CCCOc1ccc(C=C2C(=O)NN(c3ccccc3)C2=O)c(OC[C@H](O)[C@@H](O)C(=O)O)c1C [Example 2a71, 4-[1-[2-((2S,3R)-3-carboxy-2,3-dihydroxy-propoxy)-3-methyl-4-propoxy-phenyl]-methylidene]-1-phenyl-pyrazolidine-3,5-dione] | 3 |
| CCCOc1ccc(C=C2C(=O)NN(c3ccccn3)C2=O)c(C)c1C [Example 4a2, 4-(2,3-Dimethyl-4-propoxy-benzylidene)-1-pyridin-2-yl-pyrazolidine-3,5-dione] | 140 |
| CCCOc1ccc(C=C2C(=O)NN(c3ccc(F)cc3)C2=O)c(C)c1C [Example 8a, 4-(2,3-Dimethyl-4-propoxy-benzylidene)-1-(4-fluoro-phenyl)-pyrazolidine-3,5-dione] | 83 |
| CCCOc1ccc(C=C2C(=O)NNC2=O)c2c1CCCC2 [Example 12a3, 4-(4-Propoxy-5,6,7,8-tetrahydro-naphthalen-1-ylmethylene)-pyrazolidine-3,5-dione] | 55 |
| CCCOc1ccc(C=C2C(=O)NNC2=O)c(OCCC)c1C [Example 12a9, 4-(3-Methyl-2,4-dipropoxy-benzylidene)-pyrazolidine-3,5-dione] | 40 |
| CCCOc1ccc(C=C2C(=O)NN(C(C)=O)C2=O)c(C)c1C [Example 15, 1-Acetyl-4-[1-(2,3-dimethyl-4-propoxy-phenyl)-methylidene]-pyrazolidine-3,5-dione] | 9600 |
